According to US6184252A, “2-amino-1,3-alkanediol compositions for inducing/stimulating hair growth and/or retarding hair loss” (priority 1996, dated 2001):
Like-named read-outs stand apart in the source and are kept apart here.

Experiments:
Type in all cases: cell-based
[1] = test system: HaCat cells (cultured keratinocytes); experiment: Cell viability (mitochondrial respiration, XTT kit); conditions: for activation at 0.05 µM: Homo sapiens, HaCaT, read-out: increase in the number of cells with respect to the control (cell viability)
Description: Measurement of the Effect of 2-amino-1,3-octadecanediol and Derivatives Thereof on Cell Viability
HaCat cells were cultured as in Example 1.
(§1) These were then inoculated at a density of 20,000 cells per well in the 24 wells of plates of the multiwell type (Costar, France).
(§2) 24 hours after inoculation, the cells were contacted with the various test compounds in a KBM medium (marketed by Clonetics) containing insulin at 5 μg/ml and hydrocortisone at 0.5 μg/ml.
(§3) Cell viability was evaluated 48 hours later by measuring the mitochondrial respiration. This was carried out using an XTT kit, marketed by Boehringer, according to the supplier's instructions.
The compounds A, B and C of the above Example 1 were tested at a concentration of 50 nM, as well as a derivative based on sphingenine: N-palmitoylsphingenine marketeed by Sigma (C16H).

[2] = test system: HaCat cells (keratinocytes); experiment: Effect on the cell cycle (BrdU incorporation, entry into S phase); conditions: 50 nM; for activation at 0.05 µM: Homo sapiens, HaCaT, read-out: increase in the number of cells which have entered into the S phase with respect to the control
Description: Measurement of the Effect of 2-amino-1,3-octadecanediol and Derivatives Thereof on the Cell Cycle
HaCat cells were cultured as above.
as §1
24 hours after inoculation, the cells were contacted with the various test compounds in a KBM medium (marketed by Clonetics) containing insulin at 5 μg/ml and hydrocortisone at 0.5 μg/ml and 5-bromo-2'-deoxyuridine (BrdU) at 1 μM.
[…] This was carried out using a BrdU fast kit, marketed by Boehringer, according to the supplier's instructions.
The compounds A, B and C of the above example were tested at a concentration of 50 nM.
The results, expressed as percentage, represent the increase in the number of cells which have entered into the S phase with respect to the control, namely, with respect to a culture produced under the same conditions in the absence of alkanediol compounds.

[3] = test system: HaCat cells (cultured keratinocytes); experiment: Proliferative influence on cultured keratinocytes (cell counting with Coulter Counter); conditions: Homo sapiens, 120 h, 5 days, read-out: increase in the number of cells with respect to the control; for activation at 0.0005 µM: 0.5 nM; for activation at 0.005 µM: 5 nM; for activation at 0.05 µM: 50 nM; for activation at 0.5 µM: 500 nM
Description: Measurement of the Proliferative Influence of 2-amino-1,3-octadecanediol and Derivatives Thereof on Cultured Keratinocytes
HaCat cells (Boukamp and coworkers, J. Cell Biol., vol. 106, March 1988, 761-771) were cultured in DMEM medium (marketed by Gibco) containing amino acids (mixture of nonessential amino acids) at a concentration of 0.1 mM, penicillin and streptomycin at respective concentrations of 50 International Units per […] and of 50 μg/ml, glutamine at a concentration of 2 mM, sodium pyruvate at a concentration of 1 mM and 10% fetal calf serum. These cells were inoculated at a density of 10,000 cells per well in the 24 wells of plates of the multiwell type (Costar, France). 24 hours after inoculation, the cells were contacted with the various test compounds in a KBM medium (marketed by Clonetics) containing 0.15 mM of calcium ion, insulin at 5 μg/ml, hydrocortisone at 0.5 μg/ml and lipid-free bovine serum albumin at 1 μg/ml.
Cellular counting was carried out 5 days after the addition of the various ceramides using a cell counter of the Coulter Counter type.
The various compounds were tested at 0.5 nM, 5 nM, 50 nM and 500 nM.
The results, expressed as percentage, represent the increase in the number of cells with respect to the control, namely, with respect to a culture produced under the same conditions in the absence of sphinganine.

[4] = test system: hair follicle; experiment: Survival of the hair follicle in vitro; conditions: Homo sapiens, read-out: percentage of surviving follicles
Description: Viable in vitro hair follicles were prepared according to the technique described in FR-95/08,465, filed Jul. 12, 1995 and assigned to the assignee hereof. From a scalp biopsy, a rather fine strip of scalp was isolated using a scalpel. The adipose tissue surrounding the follicles was removed with microforceps while avoiding damage to the hair bulb. The follicle was cut and removed with a scalpel under a microscope in order to separate it from its epidermal and dermal surroundings. The fragment obtained was maintained in culture in Williams E medium, at 37° C., in a humid atmosphere in the presence of CO2. The survival of the follicles was evaluated each day by counting the living follicles, according to their morphological appearance. The results are reported as percentage of surviving follicles per day. The experiment was carried out employing the following compounds at a concentration of 50 nM: in comparison with the culture medium without alkanediol (A).

[5] = test system: HaCat cells; experiment: Cell viability in the presence of doxorubicin (XTT kit); conditions: for increase in the number of cells with respect to the control (A): read at 48 hours
Description: Effect of 2-amino-1,3-octadecanediol and Derivatives Thereof on Cell Viability in the Presence of Doxorubicin
HaCat cells were cultured as in Example 2.
as §2
The cells were cultured in the presence of the 2-amino-1,3-octadecanediol to be tested until evaluation of cell viability.
Doxorubicin at a concentration of 1 μg/ml was added to the culture medium for 2 hours at the beginning of the experiment.
as §3
(§4) The experiment was carried out with the following compounds at a concentration of 50 nM:
in comparison with the culture medium without alkanediol and without doxorubicin (A) and with a medium containing only doxorubicin (B).
The results, expressed as percentage, represent the increase in the number of cells with respect to the control (A), namely, with respect to a culture produced under the same conditions in the absence of alkanediol compounds and of doxorubicin.

[6] = test system: HaCat cells
Description: Effect of 2-amino-1,3-octadecanediol and Derivatives Thereof on Cell Viability in the Presence of a Compound Based on Sphingenine, N-acetylsphingenine
The cells were cultured as in Example 5. N-Acetylsphingenine was at a concentration of 10 μM.
as §4
in comparison with the culture medium without alkanediol and without N-acetylsphingenine (A) and with a medium containing only N-acetylsphingenine (B).
The results, expressed as percentage, represent the number of cells with respect to the control (A), namely, with respect to a culture produced under the same conditions in the absence of alkanediol compounds and of N-acetylsphingenine.

[7] = alkanediol 50 nM in presence of doxorubicin 1 μg/ml for 2 hours

For `CCCCCCCCCCCCCCCC(O)C(CO)NC(=O)C(O)CCCCCCCCCCCCCC` (stereo not drawn) [C, 2-N-(2-hydroxyhexadecanoyl)amino-1,3-octadecanediol], the “viability of the cultured keratinocytes (in words)” value ([1]; 50 nM, 48 hours) was “increased the viability of the cultured keratinocytes”, the activation at 0.05 µM ([1]; 50 nM, 48 hours) was 20% and the “number of keratinocytes which have entered into the S phase (in words)” value (“number … (in words)” below) [2] was “increase the number of keratinocytes which have entered into the S phase”. The activation at 0.05 µM ([2]; 72 hours) was 17%, the activation at 0.05 µM ([2]; 96 hours) was 43% and the activation at 0.0005 µM [3] was 26%. For the same molecule, the activation at 0.005 µM [3] was 36%, the activation at 0.05 µM [3] was 42% and the activation at 0.5 µM [3] was 22%. It also gave a viability at 0.05 µM ([4]; 0 h, 50 nM, day 0) of 100%, a viability at 0.05 µM ([4]; 24 h, 50 nM, day 1) of 100% and a viability at 0.05 µM ([4]; 120 h, 50 nM, day 5) of 100%. It also gave a viability at 0.05 µM ([4]; 240 h, 50 nM, day 10) of 50%, a viability at 0.05 µM ([4]; 360 h, 50 nM, day 15) of 42% and a viability at 0.05 µM ([4]; 480 h, 50 nM, day 20) of 25%. The viability at 0.05 µM ([4]; 600 h, 50 nM, day 25) was 0% and the “increase in the number of cells with respect to the control (A)” value (“increase in the number of cells … (A)” for short) [5, 7] was “+23%”.
For `CCCCCCCCCCCCC/C=C/[C@@H](O)[C@H](CO)NC(=O)CCCCCCCCCCCCCCC` [Compound C16H, N-palmitoylsphingenine, reference compound], the “increase in the number of cells with respect to the control (cell viability)” value ([1]; 50 nM, 48 hours) was -25% and the “viability of the cultured keratinocytes (in words)” value ([1]; 50 nM, 48 hours) was “elicited a cytotoxic effect on the cultured cells”.
Molecule `CCCCCCCCCCCCCCCC(O)C(CO)NC(C)=O` (stereo not drawn) [E, 2-acetylamino-1,3-octadecanediol] has an activation at 0.0005 µM [3] of 17%, an activation at 0.005 µM [3] of 34% and an activation at 0.05 µM [3] of 29%. The activation at 0.5 µM [3] was 35%.
In the case of `CCCCCCCC/C=C\CCCCCCCC(=O)NC(CO)C(O)CCCCCCCCCCCCCCC` (stereo not drawn) [B, 2-oleoylamino-1,3-octadecanediol], the “viability of the cultured keratinocytes (in words)” value ([1]; 50 nM, 48 hours) is reported as “increased the viability of the cultured keratinocytes”, the activation at 0.05 µM ([1]; 48 h) is reported as 23% and the “number … (in words)” value [2] is reported as “increase the number of keratinocytes which have entered into the S phase”. The activation at 0.05 µM ([2]; 72 hours) was 43%, the activation at 0.05 µM ([2]; 96 hours) was 51% and the activation at 0.0005 µM [3] was 17%. The activation at 0.005 µM [3] was 24%, the activation at 0.05 µM [3] was 23% and the activation at 0.5 µM [3] was 14%. For the same molecule, the viability at 0.05 µM ([4]; 0 h) was 100%, the viability at 0.05 µM ([4]; 24 h) was 100% and the viability at 0.05 µM ([4]; 120 h) was 100%. The viability at 0.05 µM ([4]; 240 h) was 78%, the viability at 0.05 µM ([4]; 360 h) was 33% and the viability at 0.05 µM ([4]; 480 h) was 0%. For the same molecule, the viability at 0.05 µM ([4]; 600 h) was 0% and the “increase in the number of cells … (A)” value [5, 7] was “+28%”.
For `CCCCCCCCCCCCCCCC(O)C(N)CO` (stereo not drawn) [A, 2-amino-1,3-octadecanediol], the “viability of the cultured keratinocytes (in words)” value ([1]; 50 nM, 48 hours) was “increased the viability of the cultured keratinocytes”, the activation at 0.05 µM ([1]; 50 nM, 48 hours) was 17% and the “number … (in words)” value [2] was “increase the number of keratinocytes which have entered into the S phase”. It also gave an activation at 0.05 µM ([2]; 72 hours) of 36%, an activation at 0.05 µM ([2]; 96 hours) of 41% and an activation at 0.0005 µM [3] of 7%. The activation at 0.005 µM [3] was 15%, the activation at 0.05 µM [3] was 17% and the activation at 0.5 µM [3] was 30%. It also gave a viability at 0.05 µM ([4]; 0 h, 50 nM, day 0) of 100%, a viability at 0.05 µM ([4]; 24 h, 50 nM, day 1) of 100% and a viability at 0.05 µM ([4]; 120 h, 50 nM, day 5) of 90%. For the same molecule, the viability at 0.05 µM ([4]; 240 h, 50 nM, day 10) was 20%, the viability at 0.05 µM ([4]; 360 h, 50 nM, day 15) was 0% and the viability at 0.05 µM ([4]; 480 h, 50 nM, day 20) was 0%. For the same molecule, the viability at 0.05 µM ([4]; 600 h, 50 nM, day 25) was 0% and the “increase in the number of cells … (A)” value [5, 7] was “+25%”.
`COc1cccc2c1C(=O)c1c(O)c3c(c(O)c1C2=O)C[C@@](O)(C(=O)CO)C[C@@H]3O[C@H]1C[C@H](N)[C@H](O)[C@H](C)O1` [Doxorubicin, reference compound] was tested, and the “cell viability in the presence of doxorubicin (in words)” value ([5]; doxorubicin 1 μg/ml for 2 hours, alkanediol 50 nM) was “caused a decrease in cell viability” and the “increase in the number of cells … (A)” value ([5]; only doxorubicin, 1 μg/ml for 2 hours) was -20%.
With `CCCCCCCCCCCCC/C=C/[C@@H](O)[C@H](CO)NC(C)=O` [N-Acetylsphingenine] the “cell viability in the presence of N-acetylsphingenine (in words)” value ([6]; N-acetylsphingenine 10 μM, alkanediol 50 nM) was “caused a decrease in cell viability” and the “number of cells with respect to the control (A)” value ([6]; human, hacat cells, 48 h, 10 µM) was 57%.
`CCCCCCCCCCCCCCCC(O)C(CO)NC(=O)CCCCCCC` (stereo not drawn) [F, 2-octanoylamino-1,3-octadecanediol] showed an activation at 0.0005 µM [3] of 15%, an activation at 0.005 µM [3] of 18% and an activation at 0.05 µM [3] of 31%. It also gave an activation at 0.5 µM [3] of 27%.
`CCCCCCCCCCCCCCCCCCCCCCCC(=O)NC(CO)C(O)CCCCCCCCCCCCCCC` (stereo not drawn) [D, 2-tetracosanoylamino-1,3-octadecanediol] showed an activation at 0.0005 µM [3] of 22%, an activation at 0.005 µM [3] of 27% and an activation at 0.05 µM [3] of 33%. For the same molecule, the activation at 0.5 µM [3] was 42%.
